According to patent US9060529B2, “Method for treatment of lacto-N-biose-containing solution” (Morinaga Milk Industry Co., Ltd., priority 2010, dated 2015):

What was measured:
[1] = Test Example 3: effect of heating temperature and time on stability of LNB at various pH (2% LNB in buffer, TLC); assay type: physicochemical; set-up: key to extent of decomposition: −: no decomposition; ±: slight decomposition; +: partial decomposition; ++: majority decomposition; +++: almost total decomposition; settings: for stability of LNB (decomposition by TLC): 65-120° C., 5-60 minutes
Description: Samples of the LNB powder prepared in the above Production Example 1 were dissolved at a concentration of 2% in a 0.1 M citrate buffer solution (pH: 5.5, 5.0, 4.0, 3.0) to prepare a series of liquid compositions containing LNB. Further, a portion of the LNB solution having a pH of 3.0 was used to prepare solutions having a pH of 2.0 or 1.0 by adding 1 M hydrochloric acid.
In a separate preparation, a sample of the LNB powder was dissolved at a concentration of 2% in a 0.1 M phosphate buffer having a pH of 7.0 to prepare a liquid composition containing LNB.
Sets containing the liquid compositions containing LNB at each pH value were each heated at a predetermined temperature (65, 70, 80, 90, 100 or 120° C.) for a predetermined period of time (5, 10, 20, 30 or 60 minutes).
Each of the heated liquid compositions containing LNB was cooled, and the same method as that described for Test Example 1 was used to determine whether or not decomposition had occurred, and if so, the extent of that decomposition. Based on the results, the extent of decomposition was evaluated against the criteria listed below.
• − no decomposition • ± slight decomposition • + partial decomposition • ++ majority decomposition • +++ almost total decomposition 2) Test Results: […]

[2] = Examples 1-3: TLC analysis of heated liquid preparations containing LNB; assay type: physicochemical
Description: Each of the heated samples was cooled to 15° C., and 1 μL was then spotted onto a silica gel thin layer chromatography (TLC) plate. The plate was developed using an 80% acetonitrile solvent, and was then immersed in a 5% sulfuric acid solution and colorized by heating in an oven. The existence or absence of decomposed or denatured products (N-acetylglucosamine dehydrate and galactose) and the amount of those decomposed or denatured products were evaluated visually to determine whether or not decomposition had occurred, and if so, the extent of that decomposition.
100 g of the LNB powder prepared in the above Production Example 1 was dissolved in 9.9 kg of purified water, and 0.1 M hydrochloric acid was added to the solution to adjust the pH to 4.5. The resulting aqueous solution was preheated for 3 minutes at 70° C. using a UHT sterilizer (manufactured by Morinaga Engineering Co., Ltd.), subsequently sterilized at 130° C. for 2 seconds, and then cooled to 15° C., yielding 10 kg of a liquid preparation containing LNB.
100 g of the LNB powder prepared in the above Production Example 1 was added to 9.9 kg of a commercially available orange juice (manufactured by Morinaga Milk Industry Co., Ltd.), and the resulting mixture was heated at 80° C. for 15 minutes and then cooled to 15° C. 100 mL aliquots of the juice were used to fill glass bottles, which were then sealed, yielding 100 bottles of orange juice containing LNB.
100 g of the LNB powder prepared in the above Production Example 1 was dissolved in 9.9 kg of purified water, and 0.1 M citric acid was added to the solution to adjust the pH to 5.0. The resulting aqueous solution was heated at 90° C. for 30 minutes, and then cooled to 15° C., yielding 10 kg of a liquid preparation containing LNB.

CC(=O)N[C@H]1C(O)O[C@H](CO)[C@@H](O)[C@@H]1O[C@@H]1O[C@H](CO)[C@H](O)[C@H](O)[C@H]1O (stereo partly drawn) [LNB, Lacto-N-biose]
extent of decomposition ([1]; pH 4.0, 65° C., 5 minutes): − | extent of decomposition ([1]; pH 4.0, 65° C., 10 minutes): − | extent of decomposition ([1]; pH 4.0, 65° C., 20 minutes): − | extent of decomposition ([1]; pH 4.0, 65° C., 30 minutes): − | extent of decomposition ([1]; pH 4.0, 65° C., 60 minutes): − | extent of decomposition ([1]; pH 4.0, 70° C., 5 minutes): − | extent of decomposition ([1]; pH 4.0, 70° C., 10 minutes): − | extent of decomposition ([1]; pH 4.0, 70° C., 20 minutes): − | extent of decomposition ([1]; pH 4.0, 70° C., 30 minutes): − | extent of decomposition ([1]; pH 4.0, 70° C., 60 minutes): − | extent of decomposition ([1]; pH 4.0, 80° C., 5 minutes): − | extent of decomposition ([1]; pH 4.0, 80° C., 10 minutes): − | extent of decomposition ([1]; pH 4.0, 80° C., 20 minutes): − | extent of decomposition ([1]; pH 4.0, 80° C., 30 minutes): − | extent of decomposition ([1]; pH 4.0, 80° C., 60 minutes): − | extent of decomposition ([1]; pH 4.0, 90° C., 5 minutes): − | extent of decomposition ([1]; pH 4.0, 90° C., 10 minutes): − | extent of decomposition ([1]; pH 4.0, 90° C., 20 minutes): − | extent of decomposition ([1]; pH 4.0, 90° C., 30 minutes): − | extent of decomposition ([1]; pH 4.0, 90° C., 60 minutes): − | extent of decomposition ([1]; pH 4.0, 100° C., 5 minutes): − | extent of decomposition ([1]; pH 4.0, 100° C., 10 minutes): − | extent of decomposition ([1]; pH 4.0, 100° C., 20 minutes): − | extent of decomposition ([1]; pH 4.0, 100° C., 30 minutes): − | extent of decomposition ([1]; pH 4.0, 100° C., 60 minutes): − | extent of decomposition ([1]; pH 4.0, 120° C., 5 minutes): − | extent of decomposition ([1]; pH 4.0, 120° C., 10 minutes): − | extent of decomposition ([1]; pH 4.0, 120° C., 20 minutes): − | extent of decomposition ([1]; pH 4.0, 120° C., 30 minutes): − | extent of decomposition ([1]; pH 4.0, 120° C., 60 minutes): − | extent of decomposition ([1]; pH 5.0, 65° C., 5 minutes): − | extent of decomposition ([1]; pH 5.0, 65° C., 10 minutes): − | extent of decomposition ([1]; pH 5.0, 65° C., 20 minutes): − | extent of decomposition ([1]; pH 5.0, 65° C., 30 minutes): − | extent of decomposition ([1]; pH 5.0, 65° C., 60 minutes): − | extent of decomposition ([1]; pH 5.0, 70° C., 5 minutes): − | extent of decomposition ([1]; pH 5.0, 70° C., 10 minutes): − | extent of decomposition ([1]; pH 5.0, 70° C., 20 minutes): − | extent of decomposition ([1]; pH 5.0, 70° C., 30 minutes): − | extent of decomposition ([1]; pH 5.0, 70° C., 60 minutes): − | extent of decomposition ([1]; pH 5.0, 80° C., 5 minutes): − | extent of decomposition ([1]; pH 5.0, 80° C., 10 minutes): − | extent of decomposition ([1]; pH 5.0, 80° C., 20 minutes): − | extent of decomposition ([1]; pH 5.0, 80° C., 30 minutes): − | extent of decomposition ([1]; pH 5.0, 80° C., 60 minutes): − | extent of decomposition ([1]; pH 5.0, 90° C., 5 minutes): − | extent of decomposition ([1]; pH 5.0, 90° C., 10 minutes): − | extent of decomposition ([1]; pH 5.0, 90° C., 20 minutes): − | extent of decomposition ([1]; pH 5.0, 90° C., 30 minutes): − | extent of decomposition ([1]; pH 5.0, 90° C., 60 minutes): − | extent of decomposition ([1]; pH 5.0, 100° C., 5 minutes): − | extent of decomposition ([1]; pH 5.0, 100° C., 10 minutes): − | extent of decomposition ([1]; pH 5.0, 100° C., 20 minutes): − | extent of decomposition ([1]; pH 5.0, 100° C., 30 minutes): − | extent of decomposition ([1]; pH 5.0, 100° C., 60 minutes): ± | extent of decomposition ([1]; pH 5.0, 120° C., 5 minutes): − | extent of decomposition ([1]; pH 5.0, 120° C., 10 minutes): − | extent of decomposition ([1]; pH 5.0, 120° C., 20 minutes): ± | extent of decomposition ([1]; pH 5.0, 120° C., 30 minutes): ± | extent of decomposition ([1]; pH 5.0, 120° C., 60 minutes): ± | extent of decomposition ([1]; pH 5.5, 65° C., 5 minutes): − | extent of decomposition ([1]; pH 5.5, 65° C., 10 minutes): − | extent of decomposition ([1]; pH 5.5, 65° C., 20 minutes): − | extent of decomposition ([1]; pH 5.5, 65° C., 30 minutes): − | extent of decomposition ([1]; pH 5.5, 65° C., 60 minutes): − | extent of decomposition ([1]; pH 5.5, 70° C., 5 minutes): − | extent of decomposition ([1]; pH 5.5, 70° C., 10 minutes): − | extent of decomposition ([1]; pH 5.5, 70° C., 20 minutes): − | extent of decomposition ([1]; pH 5.5, 70° C., 30 minutes): − | extent of decomposition ([1]; pH 5.5, 70° C., 60 minutes): − | extent of decomposition ([1]; pH 5.5, 80° C., 5 minutes): − | extent of decomposition ([1]; pH 5.5, 80° C., 10 minutes): − | extent of decomposition ([1]; pH 5.5, 80° C., 20 minutes): − | extent of decomposition ([1]; pH 5.5, 80° C., 30 minutes): − | extent of decomposition ([1]; pH 5.5, 80° C., 60 minutes): − | extent of decomposition ([1]; pH 5.5, 90° C., 5 minutes): − | extent of decomposition ([1]; pH 5.5, 90° C., 10 minutes): − | extent of decomposition ([1]; pH 5.5, 90° C., 20 minutes): − | extent of decomposition ([1]; pH 5.5, 90° C., 30 minutes): − | extent of decomposition ([1]; pH 5.5, 90° C., 60 minutes): ± | extent of decomposition ([1]; pH 5.5, 100° C., 5 minutes): − | extent of decomposition ([1]; pH 5.5, 100° C., 10 minutes): − | extent of decomposition ([1]; pH 5.5, 100° C., 20 minutes): − | extent of decomposition ([1]; pH 5.5, 100° C., 30 minutes): ± | extent of decomposition ([1]; pH 5.5, 100° C., 60 minutes): + | extent of decomposition ([1]; pH 5.5, 120° C., 5 minutes): − | extent of decomposition ([1]; pH 5.5, 120° C., 10 minutes): ± | extent of decomposition ([1]; pH 5.5, 120° C., 20 minutes): + | extent of decomposition ([1]; pH 5.5, 120° C., 30 minutes): + | extent of decomposition ([1]; pH 5.5, 120° C., 60 minutes): + | extent of decomposition ([1]; pH 7.0, 100° C., 5 minutes): + | extent of decomposition ([1]; pH 7.0, 100° C., 10 minutes): + | extent of decomposition ([1]; pH 7.0, 100° C., 20 minutes): ++ | extent of decomposition ([1]; pH 7.0, 100° C., 30 minutes): ++ | extent of decomposition ([1]; pH 7.0, 100° C., 60 minutes): +++ | extent of decomposition ([1]; pH 7.0, 120° C., 5 minutes): ++ | extent of decomposition ([1]; pH 7.0, 120° C., 10 minutes): +++ | extent of decomposition ([1]; pH 7.0, 120° C., 20 minutes): +++ | extent of decomposition ([1]; pH 7.0, 120° C., 30 minutes): +++ | extent of decomposition ([1]; pH 7.0, 120° C., 60 minutes): +++ | stability of LNB (decomposition by TLC) ([1]; pH 7.0 or 1.0): decomposition occurred even after heating for 5 minutes | stability of LNB (decomposition by TLC) ([1]; pH not less than 2.0 to not more than 5.5): stable and underwent almost no decomposition | decomposition of LNB (TLC) ([2]; Example 1: aqueous solution pH 4.5, 70° C. for 3 minutes, then 130° C. for 2 seconds): had not decomposed | decomposition of LNB (TLC) ([2]; Example 2: orange juice pH 4.51, 80° C. for 15 minutes): had not decomposed | decomposition of LNB (TLC) ([2]; Example 3: aqueous solution pH 5.0 (citric acid), 90° C. for 30 minutes): had not decomposed
